Source: US20220387404A1, “TREATMENT OF CANCER USING A COMBINATION COMPRISING MULTI-TYROSINE KINASE INHIBITOR AND IMMUNE CHECKPOINT INHIBITOR” (BEIGENE, LTD., priority 2019, published 2022)

Experiments:
[1] = tested on: A20 (B cell lymphoma) cells; test: Combination efficacy in A20 syngeneic mouse model; format: in vivo, BALB/C mice; conditions: muCh15mt 3 mg/kg QW i.p., Compound 1 5 mg/kg QD P.O.
Method: Female BALB/C mice were s.c implanted with 1×10^5 A20 (B cell lymphoma) cells per 150 μl PBS in the right flank. After inoculation, tumor volumes were determined twice weekly in two dimensions using a caliper, and were expressed in mm^3 using the formula: V=0.5(a×b^2) where a and b are the long and short diameters of the tumor, respectively. When tumor volume reached approximately 100 mm^3, mice were randomized into 4 groups with 12 animals in each group according to tumor volume. The mice were then treated with vehicle (PEG400/0.1N HCL in saline, 40/60), muCh15mt, Compound 1, and the combination, respectively. MuCh15mt was given at 3 mg/kg once per week (QW) by intraperitoneal (i.p.) injection, and Compound 1 was administered at 5 mg/kg once per day (QD) by oral gavage (P.O.).
Data are presented as mean tumor volume ±standard error of the mean (SEM). Tumor growth inhibition (TGI) is calculated using the following formula:
(§1) treated t=treated tumor volume at time t treated t0=treated tumor volume at time 0 placebo t=placebo tumor volume at time t placebo t0=placebo tumor volume at time 0

[2] = tested on: MC38 (colon adenocarcinoma) cells; test: Combination efficacy in MC38 syngeneic mouse model; format: in vivo, BALB/C mice; conditions: muCh15mt 3 mg/kg QW i.p., Compound 1 5 mg/kg QD P.O.
Method: Female BALB/C mice were s.c implanted with 1×10^6 MC38 (colon adenocarcinoma) cells per 150 μl PBS in the right flank. After inoculation, mice were randomized into 4 groups with 15 animals in each group. The mice were treated with vehicle (PEG400/0.1N HCL in saline, 40/60), muCh15mt, Compound 1, and the combination treatment of much15mt and Compound 1, respectively. MuCh15mt was given at 3 mg/kg once per week (QW) by intraperitoneal (i.p.) injection, and Compound 1 was administered at 5 mg/kg once per day (QD) for 25 days by oral gavage (P.O.). Tumor volumes were determined twice weekly in two dimensions using a caliper, and were expressed in mm^3 using the formula: V=0.5(a×b^2) where a and b are the long and short diameters of the tumor, respectively.
Data are presented as mean tumor volume+standard error of the mean (SEM). Tumor growth inhihition (TGI) is calculated using the following formula:
as §1

[3] = tested on: A431 (epidermal carcinoma) cells; test: Combination efficacy in A431 allogeneic mouse model (A431 cells + human PBMC, s.c.); format: in vivo, Nod-Scid mice; conditions: Mab-1 10 mg/kg QW i.p., Compound 1 1.5 mg/kg QD P.O.
Method: Female Nod-Scid mice were pretreated with cyclophosphamide (in saline, 100 mg/kg intraperitoneal, QD×2) and disulfiram (in 0.8% Tween-80 in saline 125 mg/kg oral gavage, 2 hr after the dose of cyclophosphamide). Two days later, mice with higher body weight were subcutaneously implanted with 2.5×10^6 A431 (epidermal carcinoma) cells and 5×10^6 freshly isolated peripheral blood mononuclear cells (PBMC) on the right flank. After inoculation, mice were randomly assigned into 4 groups with 10 animals in each group according to body weight. Then mice were treated with vehicle (PEG400/0.1N HCL in saline, 40/60), Mab-1, Compound 1, and combination of Mab-1 and Compound 1, respectively. Mab-1 was given at 10 mg/kg once per week (QW) by intraperitoneal (i.p.) injection, and Compound 1 was administered at 1.5 mg/kg once per day (QD) by oral gavage (P.O.). Tumor volume was determined twice weekly in two dimensions using a caliper, and expressed in mm^3 using the formula: V=0.5(a×b^2), where a and b are the long and short diameters of the tumor, respectively.
Data are presented as mean tumor volume±standard error of the mean (SEM). Tumor growth inhibition (TGI) is calculated using the following formula:
treated t=treated tumor volume at time t;treated t0=treated tumor volume at time 0; placebo t=placebo tumor volume at time t; placebo t0=placebo tumor volume at time 0.

[4] = tested on: CT26WT (colon carcinoma) cells; test: Combination efficacy in CT26WT syngeneic mouse model; format: in vivo, BALB/c mice; conditions: muCh15mt 3 mg/kg QW i.p., Compound 1 5 mg/kg QD oral gavage
Method: Female BALB/c mice were s.c implanted with 2×10^5 CT26WT (colon carcinoma) cells per 150 ul PBS in the right flank. After inoculation, mice were randomized into 4 groups with 12 animals in each group. The mice were treated with vehicle (PEG400/0.1N HCL in saline, 40/60), muCh15mt, Compound 1, and the combination of muCh15mt and Compound 1, respectively. MuCh15mt was given at 3 mg/kg once per week (QW) by intraperitoneal (i.p.) injection, and Compound 1 was administered at 5 mg/kg once per day (QD) by oral gavage. Tumor volume was determined twice weekly in two dimensions using a caliper, and was expressed in mm^3 using the formula: V=0.5(a×b^2) where a and b are the long and short diameters of the tumor, respectively. Data are presented as mean tumor volume 1 standard error of the mean (SEM). Tumor growth inhibition (TGI) is calculated using the following formula:
as §1

COCCNCc1ccc(-c2cc3nccc(Oc4ccc(NC(=O)C5(C(=O)Nc6ccc(F)cc6)CC5)cc4F)c3s2)nc1 [Compound 1]
TGI (%) on Day 15 ([1]; Day 15): 71%
Mean Tumor Volume on Day 18 (mm^3) ([1]; Day 18): 735.7 mm^3
Tumor Free Animal % on Day 18 ([1]; Day 18): 8.3%
Mean Tumor Volume on Day 25 (mm^3) [2]: 1089.5 mm^3
TGI (%) on Day 25 [2]: 56%
Tumor Free Animal % on Day 25 [2]: 0%
Mean Tumor Volume on Day 26 (mm^3) [3]: 851.5 mm^3
TGI (%) on Day 26 [3]: 37%
Mean Tumor Volume on Day 28 (mm^3) [4]: 723.2 mm^3
TGI (%) on Day 28 [4]: 71%
Tumor Free Animal (%) on Day 28 [4]: 6.7%
